According to patent publication US10004701B2, “Methods and compositions for treating infection” (UNIVERSITY OF ROCHESTER, priority 2012, dated 2018):
Where a name gives a salt, the structure may show the parent alone. Read-outs that look alike come from different tables or passages of the source.

Assays:
Test in all cases: AK assay 384-well format, Prestwick library screening
E. cloacae = format: cell-based, Enterobacter cloacae; details: 50 μM final drug concentration; for fold induction at 50 µM: Enterobacter cloacae, 3 h
K. pneumoniae = format: cell-based, Klebsiella pneumoniae; details: 50 μM final drug concentration; for fold induction at 50 µM: Klebsiella pneumoniae, 3 h
P. aeruginosa = format: cell-based, Pseudomonas aeruginosa; details: 50 μM final drug concentration; for fold induction at 50 µM: Pseudomonas aeruginosa, 3 h
[1] = system: S. aureus strain USA300-0114; format: cell-based, Staphylococcus aureus; details: 50 μM final drug concentration; for fold induction at 50 µM: Staphylococcus aureus, USA300, 3 h
E. faecium = format: cell-based, Enterococcus faecium; details: 50 μM final drug concentration; for fold induction at 50 µM: Enterococcus faecium, 3 h
E. coli = format: cell-based, Escherichia coli; details: 50 μM final drug concentration; for fold induction at 50 µM: Escherichia coli, 3 h
[2] = system: A. baumannii strain 98-37-09; format: cell-based, Acinetobacter baumannii; details: 50 μM final drug concentration; for fold induction at 50 µM: Acinetobacter baumannii, 983709, 3 h
[3] = planktonic, cutoff for positive-scoring molecules 3-fold increase
[4] = planktonic E. cloacae, positive cutoff 3-fold increase, read-out: AK-based Prestwick library screening result, E. cloacae (fold increase in extracellular AK activity)
[5] = planktonic K. pneumoniae, positive cutoff 3-fold increase, read-out: AK-based Prestwick library screening result, K. pneumoniae (fold increase in extracellular AK activity)
[6] = planktonic P. aeruginosa, positive cutoff 3-fold increase, read-out: AK-based Prestwick library screening result, P. aeruginosa (fold increase in extracellular AK activity)
[7] = planktonic S. aureus, positive cutoff 3-fold increase, read-out: AK-based Prestwick library screening result, S. aureus (fold increase in extracellular AK activity)
[8] = planktonic E. faecium, positive cutoff 3-fold increase, read-out: AK-based Prestwick library screening result, E. faecium (fold increase in extracellular AK activity)
[9] = planktonic E. coli, positive cutoff 3-fold increase, read-out: AK-based Prestwick library screening result, E. coli (fold increase in extracellular AK activity)
[10] = planktonic A. baumannii, positive cutoff 3-fold increase, read-out: AK-based Prestwick library screening result, A. baumannii (fold increase in extracellular AK activity)

In the case of `O=C1NCN(c2ccccc2)C12CCN(CCCC(c1ccc(F)cc1)c1ccc(F)cc1)CC2` [Fluspirilen], the “AK-based Prestwick Library Screening Results, E. cloacae (fold increase in extracellular AK activity)” value (E. cloacae; [3]) is reported as 1.0, the “AK-based Prestwick Library Screening Results, K. pneumoniae (fold increase in extracellular AK activity)” value (K. pneumoniae; [3]) is reported as 1.1 and the “AK-based Prestwick Library Screening Results, P. aeruginosa (fold increase in extracellular AK activity)” value (P. aeruginosa; [3]) is reported as 0.8. The “AK-based Prestwick Library Screening Results, S. aureus (fold increase in extracellular AK activity)” value [1, 3] was 1.4, the “AK-based Prestwick Library Screening Results, E. faecium (fold increase in extracellular AK activity)” value (E. faecium; [3]) was 1.3 and the “AK-based Prestwick Library Screening Results, E. coli (fold increase in extracellular AK activity)” value (E. coli; [3]) was 1.3. The “AK-based Prestwick Library Screening Results, A. baumannii (fold increase in extracellular AK activity)” value [2, 3] was 6.6.

`CC(C)C(=O)Nc1ccc([N+](=O)[O-])c(C(F)(F)F)c1` [Flutamide] gave a fold induction at 50 µM (E. cloacae; 384-well format, […], read-out: AK-based Prestwick Library Screening Results, E. cloacae (increase in extracellular AK activity)) of 0.7, a fold induction at 50 µM (K. pneumoniae; 384-well format, […], read-out: AK-based Prestwick Library Screening Results, K. pneumoniae (increase in extracellular AK activity)) of 0.6 and a fold induction at 50 µM (P. aeruginosa; 384-well format, […], read-out: AK-based Prestwick Library Screening Results, P. aeruginosa (increase in extracellular AK activity)) of 0.8. For the same molecule, the fold induction at 50 µM ([1]; 384-well format, […], read-out: AK-based Prestwick Library Screening Results, S. aureus (increase in extracellular AK activity)) was 0.4, the fold induction at 50 µM (E. faecium; 384-well format, […], read-out: AK-based Prestwick Library Screening Results, E. faecium (increase in extracellular AK activity)) was 1 and the fold induction at 50 µM (E. coli; 384-well format, […], read-out: AK-based Prestwick Library Screening Results, E. coli (increase in extracellular AK activity)) was 0.7. It also gave a fold induction at 50 µM ([2]; 384-well format, […], read-out: AK-based Prestwick Library Screening Results, A. baumannii (increase in extracellular AK activity)) of 0.7.

Molecule `CCC(=O)O[C@]1(C(=O)SCF)[C@H](C)C[C@H]2[C@@H]3C[C@H](F)C4=CC(=O)C=C[C@]4(C)[C@@]3(F)[C@@H](O)C[C@@]21C` [Fluticasone propionate] has a fold induction at 50 µM (E. cloacae; [4]) of 1.5, a fold induction at 50 µM (K. pneumoniae; [5]) of 0.7 and a fold induction at 50 µM (P. aeruginosa; [6]) of 0.8. It also gave a fold induction at 50 µM [1, 7] of 0.7, a fold induction at 50 µM (E. faecium; [8]) of 0.9 and a fold induction at 50 µM (E. coli; [9]) of 0.8. For the same molecule, the fold induction at 50 µM [2, 10] was 0.8.

Molecule `CC(C)n1c(/C=C/C(O)CC(O)CC(=O)O)c(-c2ccc(F)cc2)c2ccccc21` (stereo not shown) [Fluvastatin sodium salt] has a fold induction at 50 µM (E. cloacae; cutoff for positive-scoring molecules 3-fold increase, read-out: AK-based Prestwick Library Screening Results, E. cloacae (fold increase in extracellular AK activity)) of 1.7, a fold induction at 50 µM (K. pneumoniae; cutoff for positive-scoring molecules 3-fold increase, read-out: AK-based Prestwick Library Screening Results, K. pneumoniae (fold increase in extracellular AK activity)) of 0.9 and a fold induction at 50 µM (P. aeruginosa; cutoff for positive-scoring molecules 3-fold increase, read-out: AK-based Prestwick Library Screening Results, P. aeruginosa (fold increase in extracellular AK activity)) of 1. The fold induction at 50 µM ([1]; cutoff for positive-scoring molecules 3-fold increase, read-out: AK-based Prestwick Library Screening Results, S. aureus (fold increase in extracellular AK activity)) was 1, the fold induction at 50 µM (E. faecium; cutoff for positive-scoring molecules 3-fold increase, read-out: AK-based Prestwick Library Screening Results, E. faecium (fold increase in extracellular AK activity)) was 1 and the fold induction at 50 µM (E. coli; cutoff for positive-scoring molecules 3-fold increase, read-out: AK-based Prestwick Library Screening Results, E. coli (fold increase in extracellular AK activity)) was 1.3. The fold induction at 50 µM ([2]; cutoff for positive-scoring molecules 3-fold increase, read-out: AK-based Prestwick Library Screening Results, A. baumannii (fold increase in extracellular AK activity)) was 0.9.

Work on `COCCCC/C(=N\OCCN)c1ccc(C(F)(F)F)cc1` [Fluvoxamine maleate] yielded a fold induction at 50 µM (E. cloacae; [4]) of 1.1, a fold induction at 50 µM (K. pneumoniae; [5]) of 0.7 and a fold induction at 50 µM (P. aeruginosa; [6]) of 0.8. For the same molecule, the fold induction at 50 µM [1, 7] was 0.7, the fold induction at 50 µM (E. faecium; [8]) was 0.8 and the fold induction at 50 µM (E. coli; [9]) was 0.9. For the same molecule, the fold induction at 50 µM [2, 10] was 0.9.

For `Nc1nc2ncc(CNc3ccc(C(=O)N[C@@H](CCC(=O)O)C(=O)O)cc3)nc2c(=O)[nH]1` [Folic acid], the fold induction at 50 µM (E. cloacae; planktonic, cutoff for positive 3-fold increase, read-out: AK-based Prestwick Library Screening Results, E. cloacae (fold increase in extracellular AK activity)) was 1.3, the fold induction at 50 µM (K. pneumoniae; planktonic, cutoff for positive 3-fold increase, read-out: AK-based Prestwick Library Screening Results, K. pneumoniae (fold increase in extracellular AK activity)) was 1 and the fold induction at 50 µM (P. aeruginosa; planktonic, cutoff for positive 3-fold increase, read-out: AK-based Prestwick Library Screening Results, P. aeruginosa (fold increase in extracellular AK activity)) was 1.1. The fold induction at 50 µM ([1]; planktonic, cutoff for positive 3-fold increase, read-out: AK-based Prestwick Library Screening Results, S. aureus (fold increase in extracellular AK activity)) was 1, the fold induction at 50 µM (E. faecium; planktonic, cutoff for positive 3-fold increase, read-out: AK-based Prestwick Library Screening Results, E. faecium (fold increase in extracellular AK activity)) was 1.1 and the fold induction at 50 µM (E. coli; planktonic, cutoff for positive 3-fold increase, read-out: AK-based Prestwick Library Screening Results, E. coli (fold increase in extracellular AK activity)) was 1.3. For the same molecule, the fold induction at 50 µM ([2]; planktonic, cutoff for positive 3-fold increase, read-out: AK-based Prestwick Library Screening Results, A. baumannii (fold increase in extracellular AK activity)) was 1.3.

With `Nc1nc(=O)c2c([nH]1)NCC(CNc1ccc(C(=O)N[C@@H](CCC(=O)[O-])C(=O)[O-])cc1)N2C=O.[Ca+2]` (stereo partly shown) [Folinic acid calcium salt] the “AK-based Prestwick Library Screening Results, E. cloacae (fold increase in extracellular AK activity)” value (E. cloacae; [3]) was 0.7, the “AK-based Prestwick Library Screening Results, K. pneumoniae (fold increase in extracellular AK activity)” value (K. pneumoniae; [3]) was 0.6 and the “AK-based Prestwick Library Screening Results, P. aeruginosa (fold increase in extracellular AK activity)” value (P. aeruginosa; [3]) was 0.6. The “AK-based Prestwick Library Screening Results, S. aureus (fold increase in extracellular AK activity)” value [1, 3] was 0.7, the “AK-based Prestwick Library Screening Results, E. faecium (fold increase in extracellular AK activity)” value (E. faecium; [3]) was 1.0 and the “AK-based Prestwick Library Screening Results, E. coli (fold increase in extracellular AK activity)” value (E. coli; [3]) was 0.7. The “AK-based Prestwick Library Screening Results, A. baumannii (fold increase in extracellular AK activity)” value [2, 3] was 0.7.
